What is called Ki is a measure of affinity in units of concentration, obtained from inhibition or displacement.

Structures are written as SMILES. *1 amine or outer side, *2 acyl side, *3 side chain or, on linkers, in order; H or OH if unused. Where a SMILES comes first, the peptide text is derived from it. Side-chain parts run from the residue outwards. The star is where a group is joined. C18 diacid = O=C(O)CCCCCCCCCCCCCCCCC(=O)*; γGlu = O=C(O)[C@H](CCC(=O)[*:2])N[*:1]; Isovaleryl = CC(C)CC(=O)*; AEEA = NCCOCCOCC(=O)O

Experimental findings from US12559529B2, “NPY2 receptor agonists” (Boehringer Ingelheim International GmbH, priority 2019, dated 2026) are described below.

The target of test [1] is T1, Human Neuropeptide Y2 Receptor (Homo sapiens, UniProt P49146).
T1 construct: purchased CHEMICON HTS066M
T1 sequence (P49146 1-381): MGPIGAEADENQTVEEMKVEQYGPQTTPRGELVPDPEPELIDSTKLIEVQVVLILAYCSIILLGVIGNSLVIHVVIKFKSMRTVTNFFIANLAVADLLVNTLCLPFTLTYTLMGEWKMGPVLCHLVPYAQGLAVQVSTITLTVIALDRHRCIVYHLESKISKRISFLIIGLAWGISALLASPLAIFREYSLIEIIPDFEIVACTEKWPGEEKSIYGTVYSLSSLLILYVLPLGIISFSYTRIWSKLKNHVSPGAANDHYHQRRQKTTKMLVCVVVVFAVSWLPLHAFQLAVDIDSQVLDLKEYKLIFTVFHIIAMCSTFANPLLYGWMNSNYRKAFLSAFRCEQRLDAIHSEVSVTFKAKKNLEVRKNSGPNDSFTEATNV
As to the kind of experiment: Radioligand binding competition assay (RLB). The note with it: Table 3; human 125I-PYY (1-36) 0.02 nM, Y2 receptor membranes; read-out: Ki. The gist of the method:
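Filtration format; Y2R membrane prep 0.5 μg/well; buffer 50 mM HEPES/5 mM MgCl2/1 mM CaCl2/0.2% ovalbumin pH 7.4; 2 h RT, shaking. Harvest on PEI-soaked GF/C, ice-cold HEPES/500 mM NaCl washes, scintillation count. IC50 by nonlinear fit.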

Test [2] concerns normal NMRI mice. As to the kind of experiment: Effect on acute food intake in normal NMRI mice. The test is classed as in vivo. The note with it: male NMRI mice, 10 nmol/kg subcutaneously once. The gist of the method: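 Male NMRI mice acclimatized in an HM-2 real-time food intake monitoring system, fasted 6 h before dark phase. Single subcutaneous dose of 10 nmol/kg peptide given 1 h before dark; n=7-8. Food intake expressed as % of vehicle group (50 mM phosphate pH7, 5% Mannitol).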

As for `CC(C)CC(=O)N[C@@H](C)C(=O)N1CCC[C@H]1C(=O)N[C@@H](CCC(=O)O)C(=O)N[C@@H](CCCCNC(=O)COCCOCCNC(=O)COCCOCCNC(=O)CC[C@H](NC(=O)CCCCCCCCCCCCCCCCC(=O)O)C(=O)O)C(=O)N1CCC[C@H]1C(=O)N[C@@H](CCC(=O)O)C(=O)N[C@@H](CCC(=O)O)C(=O)N[C@@H](CCC(=O)O)C(=O)N[C@@H](CO)C(=O)N[C@@H](CO)C(=O)N1CCC[C@H]1C(=O)N[C@@H](CCC(=O)O)C(=O)N[C@@H](CCC(=O)O)C(=O)N[C@@H](CC(C)C)C(=O)N[C@@H](CCC(N)=O)C(=O)N[C@@H](CCCNC(=N)N)C(=O)N[C@@H](Cc1ccc(O)cc1)C(=O)N[C@@H](Cc1ccc(O)cc1)C(=O)N[C@H](C(=O)N[C@@H](CO)C(=O)N[C@@H](CC(C)C)C(=O)N[C@@H](CCCNC(=N)N)C(=O)N[C@@H](Cc1c[nH]cn1)C(=O)N[C@@H](Cc1ccc(O)cc1)C(=O)N[C@@H](Cc1ccc(O)cc1)C(=O)N[C@@H](CC(N)=O)C(=O)N[C@@H](Cc1c[nH]c2ccccc12)C(=O)N[C@@H](CC(C)C)C(=O)N[C@H](C(=O)N[C@@H](CCCNC(=N)N)C(=O)N[C@@H](CCC(N)=O)C(=O)N[C@@H](CCCNC(=N)N)C(=O)N[C@@H](Cc1ccc(O)cc1)C(N)=O)[C@@H](C)O)C(C)C` [Compound 139, N{alpha-4}-(3-methylbutanoyl)-N{epsilon-7}-[2-(2-{2-[2-(2-{2-[(4S)-4-carboxy-4-(17-carboxyheptadecanamido)butanamido]ethoxy}ethoxy)acetamido]ethoxy}ethoxy)acetamido]-[4A,7K,9E,11E,12S,18Q,22V,28Y,30W,31L]hPYY (4-36)] (Isovaleryl-APEK([AEEA-AEEA-γGlu-C18 diacid])PEEESSPEELQRYYVSLRHYYNWLTRQRY-NH2), the Ki in test [1] stood at 3.83 nM. The “Acute Food Intake 24 h [% vehicle]” value in test [2] is on record as 74 % vehicle.
Taken in the same sequence, the figures for `CC(C)CC(=O)N[C@@H](C)C(=O)N1CCC[C@H]1C(=O)N[C@@H](CCC(=O)O)C(=O)N[C@@H](CCCCNC(=O)COCCOCCNC(=O)COCCOCCNC(=O)CC[C@H](NC(=O)CCCCCCCCCCCCCCCCC(=O)O)C(=O)O)C(=O)N1CCC[C@H]1C(=O)N[C@@H](CCC(=O)O)C(=O)N[C@@H](CCC(=O)O)C(=O)N[C@@H](CC(=O)O)C(=O)N[C@@H](C)C(=O)N[C@@H](CO)C(=O)N1CCC[C@H]1C(=O)N[C@@H](CCC(=O)O)C(=O)N[C@@H](CCC(=O)O)C(=O)N[C@@H](CC(C)C)C(=O)N[C@@H](CCC(N)=O)C(=O)N[C@@H](C)C(=O)N[C@@H](Cc1ccc(O)cc1)C(=O)N[C@@H](Cc1ccc(O)cc1)C(=O)N[C@H](C(=O)N[C@@H](CO)C(=O)N[C@@H](CC(C)C)C(=O)N[C@@H](CCCNC(=N)N)C(=O)N[C@@H](Cc1c[nH]cn1)C(=O)N[C@@H](Cc1ccc(O)cc1)C(=O)N[C@@H](Cc1ccc(O)cc1)C(=O)N[C@@H](CC(N)=O)C(=O)N[C@@H](Cc1c[nH]c2ccccc12)C(=O)N[C@@H](CC(C)C)C(=O)N[C@H](C(=O)N[C@@H](CCCNC(=N)N)C(=O)N[C@@H](CCC(N)=O)C(=O)N[C@@H](CCCNC(=N)N)C(=O)N[C@@H](Cc1ccc(O)cc1)C(N)=O)[C@@H](C)O)C(C)C` [Compound 7, N{alpha-4}-(3-methylbutanoyl)-N{epsilon-7}-[2-(2-{2-[2-(2-{2-[(4S)-4-carboxy-4-(17-carboxyheptadecanamido)butanamido]ethoxy}ethoxy)acetamido]ethoxy}ethoxy)acetamido]-[4A,7K,9E,18Q,19A,22V,28Y,30W,31L]hPYY (4-36)] were 1.02 nM and 47 % vehicle.
The matching figures for `CC(C)CC(=O)N[C@@H](C)C(=O)N1CCC[C@H]1C(=O)N[C@@H](CCC(=O)O)C(=O)N[C@@H](CCCCNC(=O)COCCOCCNC(=O)COCCOCCNC(=O)CC[C@H](NC(=O)CCCCCCCCCCCCCCCCC(=O)O)C(=O)O)C(=O)N1CCC[C@H]1C(=O)N[C@@H](CCC(=O)O)C(=O)N[C@@H](CCC(=O)O)C(=O)N[C@@H](CCC(=O)O)C(=O)N[C@@H](C)C(=O)N[C@@H](CO)C(=O)N1CCC[C@H]1C(=O)N[C@@H](CCC(=O)O)C(=O)N[C@@H](CCC(=O)O)C(=O)N[C@@H](CC(C)C)C(=O)N[C@@H](CCC(N)=O)C(=O)N[C@@H](CCCNC(=N)N)C(=O)N[C@@H](Cc1ccc(O)cc1)C(=O)N[C@@H](Cc1ccc(O)cc1)C(=O)N[C@H](C(=O)N[C@@H](CCC(=O)O)C(=O)N[C@@H](CC(C)C)C(=O)N[C@@H](CCCNC(=N)N)C(=O)N[C@@H](Cc1c[nH]cn1)C(=O)N[C@@H](Cc1ccc(O)cc1)C(=O)N[C@@H](Cc1ccc(O)cc1)C(=O)N[C@@H](CC(N)=O)C(=O)N[C@@H](Cc1c[nH]c2ccccc12)C(=O)N[C@@H](CC(C)C)C(=O)N[C@H](C(=O)N[C@@H](CCCNC(=N)N)C(=O)N[C@@H](CCC(N)=O)C(=O)N[C@@H](CCCNC(=N)N)C(=O)N[C@@H](Cc1ccc(O)cc1)C(N)=O)[C@@H](C)O)C(C)C` [Compound 185, N{alpha-4}-(3-methylbutanoyl)-N{epsilon-7}-[2-(2-{2-[2-(2-{2-[(4S)-4-carboxy-4-(17-carboxyheptadecanamido)butanamido]ethoxy}ethoxy)acetamido]ethoxy}ethoxy)acetamido]-[4A,7K,9E,11E,18Q,22V,23E,28Y,30W,31L]hPYY (4-36)]: 3.58 nM and 39 % vehicle.
The matching figures for `CC(C)CC(=O)N[C@@H](C)C(=O)N1CCC[C@H]1C(=O)N[C@@H](C)C(=O)N[C@@H](CCCCNC(=O)COCCOCCNC(=O)COCCOCCNC(=O)CC[C@H](NC(=O)CCCCCCCCCCCCCCCCC(=O)O)C(=O)O)C(=O)N1CCC[C@H]1C(=O)N[C@@H](CCC(=O)O)C(=O)N[C@@H](CCC(=O)O)C(=O)N[C@@H](CC(=O)O)C(=O)N[C@@H](C)C(=O)N[C@@H](CO)C(=O)N[C@@H](CCC(=O)O)C(=O)N[C@@H](CCC(=O)O)C(=O)N[C@@H](CCC(=O)O)C(=O)N[C@@H](CC(C)C)C(=O)N[C@@H](CCC(N)=O)C(=O)N[C@@H](CCCNC(=N)N)C(=O)N[C@@H](Cc1ccc(O)cc1)C(=O)N[C@@H](Cc1ccc(O)cc1)C(=O)N[C@H](C(=O)N[C@@H](CO)C(=O)N[C@@H](CC(C)C)C(=O)N[C@@H](CCCNC(=N)N)C(=O)N[C@@H](Cc1c[nH]cn1)C(=O)N[C@@H](Cc1ccc(O)cc1)C(=O)N[C@@H](Cc1ccc(O)cc1)C(=O)N[C@@H](CC(N)=O)C(=O)N[C@@H](Cc1c[nH]c2ccccc12)C(=O)N[C@@H](CC(C)C)C(=O)N[C@H](C(=O)N[C@@H](CCCNC(=N)N)C(=O)N[C@@H](CCC(N)=O)C(=O)N[C@@H](CCCNC(=N)N)C(=O)N[C@@H](Cc1ccc(O)cc1)C(N)=O)[C@@H](C)O)C(C)C` [Compound 103, N{alpha-4}-(3-methylbutanoyl)-N{epsilon-7}-[2-(2-{2-[2-(2-{2-[(4S)-4-carboxy-4-(17-carboxyheptadecanamido)butanamido]ethoxy}ethoxy)acetamido]ethoxy}ethoxy)acetamido]-[4A,6A,7K,9E,14E,18Q,22V,28Y,30W,31L]hPYY (4-36)]: 0.95 nM and 67 % vehicle.
